Data published in EP4635500A1, “THERAPEUTIC AGENT FOR BACTERIAL INFECTION” (Sumitomo Pharma Co., Ltd., priority 2022, dated 2024).
Like-named read-outs stand apart in the source and are kept apart here.

Columns and labels:
[1] = test system: 53 CRE and CPE strains; experiment: MICrange, MIC50, MIC80, MIC90 for 53 bacterial isolates (Example 5, Table 5); type: cell-based; conditions: 53 bacterial isolates
[2] = test system: P. aeruginosa; experiment: MIC, broth microdilution, CDC/FDA Antibiotic Resistance Isolate Bank (Example 7, Tables 10, 15); type: cell-based; conditions: for MIC: Pseudomonas aeruginosa, read-out: MIC
[3] = 26 metallo-carbapenemase-producing P. aeruginosa strains, β-lactamase inhibitor µg/mL in parentheses
[4] = 96 strains of P. aeruginosa, β-lactamase inhibitor µg/mL in parentheses

NCC[C@H](O)C(=O)N[C@@H]1C[C@H](N)[C@@H](O[C@H]2O[C@H](CN)[C@@H](O)[C@H](O)[C@H]2O)[C@H](O)[C@H]1O[C@H]1O[C@H](CO)[C@@H](O)[C@H](N)[C@H]1O [Amikacin, amikacin]
64 µg/mL: MIC ([2]; P. aeruginosa KUB No. 5668, AR Bank # 235) | MIC ([2]; P. aeruginosa KUB No. 5673, AR Bank # 240) | MIC ([2]; P. aeruginosa KUB No. 5675, AR Bank # 242) | MIC ([2]; P. aeruginosa KUB No. 5681, AR Bank # 248) | MIC ([2]; P. aeruginosa KUB No. 5693, AR Bank # 260) | MIC ([2]; P. aeruginosa KUB No. 5747, AR Bank # 351) | MIC ([2]; P. aeruginosa KUB No. 5749, AR Bank # 353) | MIC ([2]; P. aeruginosa KUB No. 5788, AR Bank # 443) | MIC ([2]; P. aeruginosa KUB No. 5790, AR Bank # 445)
8 µg(mL): MIC against 96 strains of P. aeruginosa MIC50 [2, 4]
32 µg/mL: MIC80 ([1]; read-out: MIC80) | MIC ([2]; P. aeruginosa KUB No. 5587, AR Bank # 90) | MIC ([2]; P. aeruginosa KUB No. 5591, AR Bank # 94) | MIC ([2]; P. aeruginosa KUB No. 5600, AR Bank # 103) | MIC ([2]; P. aeruginosa KUB No. 5674, AR Bank # 241) | MIC ([2]; P. aeruginosa KUB No. 5676, AR Bank # 243) | MIC ([2]; P. aeruginosa KUB No. 5696, AR Bank # 263)
> 0.064 µg/mL: MIC ([2]; P. aeruginosa KUB No. 5814, AR Bank # 509)
2 µg/mL: MIC50 ([1]; read-out: MIC50) | MIC ([2]; P. aeruginosa KUB No. 5670, AR Bank # 237) | MIC ([2]; P. aeruginosa KUB No. 5689, AR Bank # 256) | MIC ([2]; P. aeruginosa KUB No. 5692, AR Bank # 259) | MIC ([2]; P. aeruginosa KUB No. 5697, AR Bank # 264) | MIC ([2]; P. aeruginosa KUB No. 5752, AR Bank # 356) | MIC ([2]; P. aeruginosa KUB No. 5787, AR Bank # 441) | MIC ([2]; P. aeruginosa KUB No. 5800, AR Bank # 457)
0.25 µg/mL: MIC ([2]; P. aeruginosa KUB No. 5798, AR Bank # 455)
>64 µg(mL): MIC against 26 metallo-carbapenemase-producing strains MIC50 [2, 3] | MIC against 26 metallo-carbapenemase-producing strains MIC90 [2, 3] | MIC against 96 strains of P. aeruginosa MIC90 [2, 4]
> 64 µg/mL: MIC90 ([1]; read-out: MIC90) | MIC ([2]; P. aeruginosa KUB No. 5083, AR Bank # 250) | MIC ([2]; P. aeruginosa KUB No. 5589, AR Bank # 92) | MIC ([2]; P. aeruginosa KUB No. 5597, AR Bank # 100) | MIC ([2]; P. aeruginosa KUB No. 5605, AR Bank # 108) | MIC ([2]; P. aeruginosa KUB No. 5607, AR Bank # 110) | MIC ([2]; P. aeruginosa KUB No. 5608, AR Bank # 111) | MIC ([2]; P. aeruginosa KUB No. 5663, AR Bank # 230) | MIC ([2]; P. aeruginosa KUB No. 5672, AR Bank # 239) | MIC ([2]; P. aeruginosa KUB No. 5678, AR Bank # 245) | MIC ([2]; P. aeruginosa KUB No. 5679, AR Bank # 246) | MIC ([2]; P. aeruginosa KUB No. 5682, AR Bank # 249) | MIC ([2]; P. aeruginosa KUB No. 5687, AR Bank # 254) | MIC ([2]; P. aeruginosa KUB No. 5688, AR Bank # 255) | MIC ([2]; P. aeruginosa KUB No. 5753, AR Bank # 357) | MIC ([2]; P. aeruginosa KUB No. 5785, AR Bank # 439) | MIC ([2]; P. aeruginosa KUB No. 5789, AR Bank # 444) | MIC ([2]; P. aeruginosa KUB No. 5805, AR Bank # 863)
0.032 µg/mL: MIC ([2]; P. aeruginosa KUB No. 5818, AR Bank # 513)
1 µg/mL: MIC ([2]; P. aeruginosa KUB No. 5561, AR Bank # 64)
0.008 µg/mL: MIC ([2]; P. aeruginosa KUB No. 5815, AR Bank # 510) | MIC ([2]; P. aeruginosa KUB No. 5820, AR Bank # 515) | MIC ([2]; P. aeruginosa KUB No. 5833, AR Bank # 528)
4 µg/mL: MIC ([2]; P. aeruginosa KUB No. 5551, AR Bank # 54) | MIC ([2]; P. aeruginosa KUB No. 5666, AR Bank # 23) | MIC ([2]; P. aeruginosa KUB No. 5671, AR Bank # 238) | MIC ([2]; P. aeruginosa KUB No. 5680, AR Bank # 247) | MIC ([2]; P. aeruginosa KUB No. 5691, AR Bank # 258) | MIC ([2]; P. aeruginosa KUB No. 5695, AR Bank # 262) | MIC ([2]; P. aeruginosa KUB No. 5702, AR Bank # 269) | MIC ([2]; P. aeruginosa KUB No. 5704, AR Bank # 271) | MIC ([2]; P. aeruginosa KUB No. 5705, AR Bank # 272) | MIC ([2]; P. aeruginosa KUB No. 5748, AR Bank # 352) | MIC ([2]; P. aeruginosa KUB No. 5754, AR Bank # 358) | MIC ([2]; P. aeruginosa KUB No. 5755, AR Bank # 359) | MIC ([2]; P. aeruginosa KUB No. 5756, AR Bank # 360) | MIC ([2]; P. aeruginosa KUB No. 5804, AR Bank # 862)
8 µg/mL: MIC ([2]; P. aeruginosa KUB No. 579, AR Bank # 447) | MIC ([2]; P. aeruginosa KUB No. 5602, AR Bank # 105) | MIC ([2]; P. aeruginosa KUB No. 5664, AR Bank # 231) | MIC ([2]; P. aeruginosa KUB No. 5665, AR Bank # 232) | MIC ([2]; P. aeruginosa KUB No. 5667, AR Bank # 234) | MIC ([2]; P. aeruginosa KUB No. 5669, AR Bank # 236) | MIC ([2]; P. aeruginosa KUB No. 5677, AR Bank # 244) | MIC ([2]; P. aeruginosa KUB No. 5684, AR Bank # 251) | MIC ([2]; P. aeruginosa KUB No. 5690, AR Bank # 257) | MIC ([2]; P. aeruginosa KUB No. 5698, AR Bank # 265) | MIC ([2]; P. aeruginosa KUB No. 5699, AR Bank # 266) | MIC ([2]; P. aeruginosa KUB No. 5701, AR Bank # 268) | MIC ([2]; P. aeruginosa KUB No. 5750, AR Bank # 354) | MIC ([2]; P. aeruginosa KUB No. 5751, AR Bank # 355) | MIC ([2]; P. aeruginosa KUB No. 5786, AR Bank # 440) | MIC ([2]; P. aeruginosa KUB No. 5793, AR Bank # 449) | MIC ([2]; P. aeruginosa KUB No. 5799, AR Bank # 456) | MIC ([2]; P. aeruginosa KUB No. 5802, AR Bank # 459)
0.5 µg/mL: MIC ([2]; P. aeruginosa KUB No. 5592, AR Bank # 95) | MIC ([2]; P. aeruginosa KUB No. 5685, AR Bank # 252) | MIC ([2]; P. aeruginosa KUB No. 5806, AR Bank # 864)
0.0005 µg/mL: MIC ([2]; P. aeruginosa KUB No. 5832, AR Bank # 527)
0.002 µg/mL: MIC ([2]; P. aeruginosa KUB No. 5821, AR Bank # 516)
0.004 µg/mL: MIC ([2]; P. aeruginosa KUB No. 5816, AR Bank # 511) | MIC ([2]; P. aeruginosa KUB No. 5817, AR Bank # 512) | MIC ([2]; P. aeruginosa KUB No. 5819, AR Bank # 514) | MIC ([2]; P. aeruginosa KUB No. 5831, AR Bank # 526) | MIC ([2]; P. aeruginosa KUB No. 5834, AR Bank # 529)
0.064 µg/mL: MIC ([2]; P. aeruginosa KUB No. 5813, AR Bank # 508)
16 µg/mL: MIC ([2]; P. aeruginosa KUB No. 5662, AR Bank # 229) | MIC ([2]; P. aeruginosa KUB No. 5694, AR Bank # 261) | MIC ([2]; P. aeruginosa KUB No. 5700, AR Bank # 267) | MIC ([2]; P. aeruginosa KUB No. 5703, AR Bank # 270) | MIC ([2]; P. aeruginosa KUB No. 5801, AR Bank # 458)
0.016 µg/mL: MIC ([2]; P. aeruginosa KUB No. 5823, AR Bank # 518)
